pIC50: −log10 of the molar value.
What was measured:
[1] = system: cholesterol content of rat cerebral synaptosomes; test: Cholesterol depletion from synaptosomes, Cholesterol Fluorometric Assay Kit; assay type: cell-based; settings: for pIC50: rat cerebral synaptosomes, 40 min exposure, 37 °C; for Cholesterol depletion in the tested concentration range: tested concentration range 0.3–100 mM
Protocol: Adult male Wistar rats purchased from Toxi-Coop Ltd. (Budapest, Hungary) were used in the experiments. Cerebral synaptosomes were prepared according to Modi and co-workers with the following modifications. Animals were decapitated and the brain was removed rapidly. Isotonic sucrose buffer (0.32 M sucrose, 4 mM HEPES-NaOH, pH 7.4) was used to homogenize the cerebrum with a Potter S Homogenizer (B. Braun, Melsungen, Germany) with 15 strokes at 1000 rpm. The homogenate was centrifuged (1500× g, 10 min, 4 °C) and the pellet was resuspended in sucrose buffer and centrifuged with the same parameters again. The two supernatants were combined and centrifuged (20,000× g, 10 min, 4 °C) to pellet the crude synaptosomes. The resulting supernatant was discarded and the pellet was washed again with an equal volume of sucrose buffer and then pelleted by centrifugation (20,000× g, 10 min, 4 °C). Synaptosomes were stored frozen using cryopreservation buffer and the slow freezing method to preserve their physiological state and integrity. Briefly, synaptosome pellets were resuspended in isotonic sucrose buffer containing 10% DMSO (v/v) and 10% FBS (v/v). To slow down the freezing process at −80 °C, synaptosomes were placed in a 3 cm thick-walled polystyrene box with a lid. Synaptosomes were stored at −80 °C until use. Immediately prior to the experiments, synaptosomes were rapidly thawed in a 37 °C water bath and pelleted by centrifugation (20,000× g, 10 min, 4 °C) to remove the cryopreservation buffer. The pellet was resuspended in isotonic HEPES-glucose buffer (10 mM HEPES-NaOH, 130 mM NaCl, 5.4 mM KCl, 1.3 mM CaCl2, 0.9 mM MgCl2, 5.5 mM glucose, pH 7.4) and aliquoted according to the experimental design.
For all types of experiments, except for the glutamate release measurements, vehicle-treated (control) and CD-treated synaptosomes were incubated in 500 μL HEPES-glucose buffer with or without CDs, respectively, for 40 min at 37 °C. […] After incubation, the synaptosomes were centrifuged (20,000× g, 5 min, 4 °C) and used immediately for further analysis. A slightly different incubation method used in the glutamate release measurements is described in the corresponding section. Across all types of experiments, osmolarities of the CD solutions were adjusted and they were between 290 and 310 mOsm. At least three parallel measurements were carried out.
The cholesterol levels of the rat cerebral synaptosomes were measured with a Cholesterol Fluorometric Assay Kit (Cayman Chemical Company, Ann Arbor, MI, USA) with minor adjustments for the sample preparation. Briefly, after CD treatments, 2 mg of the synaptosomes were extracted with 10 vol chloroform–methanol 2:1 (v/v) to gain a lipid extract. The samples were centrifuged (20,000× g, 5 min, 4 °C) and then the supernatant was evaporated to dryness under a nitrogen stream (Zymark TurboVap LV) in a 37 °C water bath. The extracts were resuspended and diluted in the assay buffer (1.2 mL/mg synaptosome). Further preparation of the assay was according to the manufacturer’s protocol. Fluorescence was measured with a Varioskan LUX multimode microplate reader (Thermo Fisher Scientific, Waltham, MA, USA) at 530/590 nm. Cholesterol depletion in the CD-treated synaptosomes was calculated as the percentage of the cholesterol content of the vehicle-treated synaptosomes.
Data were analyzed by GraphPad Prism 8 (GraphPad Software, La Jolla, CA, USA). Concentration–response curves were constructed by the nonlinear regression method. One-way ANOVA followed by Bonferroni’s post hoc test was used for the data analysis in the case of the glutamate release experiments. All data are presented as means ± SEM of at least three parallel measurements. Differences were considered significant if p < 0.05.

[2] = system: rat cerebral synaptosomes; test: Membrane integrity by LDH release assay; assay type: cell-based; settings: for pIC50: 40 min exposure, LDH release as percentage of total LDH (Triton X-100 lysis); for Maximal effect (plateau) of LDH release: percentage of total LDH content
Protocol: Adult male Wistar rats purchased from Toxi-Coop Ltd. (Budapest, Hungary) were used in the experiments. Cerebral synaptosomes were prepared according to Modi and co-workers with the following modifications. Animals were decapitated and the brain was removed rapidly. Isotonic sucrose buffer (0.32 M sucrose, 4 mM HEPES-NaOH, pH 7.4) was used to homogenize the cerebrum with a Potter S Homogenizer (B. Braun, Melsungen, Germany) with 15 strokes at 1000 rpm. The homogenate was centrifuged (1500× g, 10 min, 4 °C) and the pellet was resuspended in sucrose buffer and centrifuged with the same parameters again. The two supernatants were combined and centrifuged (20,000× g, 10 min, 4 °C) to pellet the crude synaptosomes. […] Synaptosomes were stored frozen using cryopreservation buffer and the slow freezing method to preserve their physiological state and integrity. Briefly, synaptosome pellets were resuspended in isotonic sucrose buffer containing 10% DMSO (v/v) and 10% FBS (v/v). To slow down the freezing process at −80 °C, synaptosomes were placed in a 3 cm thick-walled polystyrene box with a lid. Synaptosomes were stored at −80 °C until use. Immediately prior to the experiments, synaptosomes were rapidly thawed in a 37 °C water bath and pelleted by centrifugation (20,000× g, 10 min, 4 °C) to remove the cryopreservation buffer. […] For all types of experiments, except for the glutamate release measurements, vehicle-treated (control) and CD-treated synaptosomes were incubated in 500 μL HEPES-glucose buffer with or without CDs, respectively, for 40 min at 37 °C. […] After incubation, the synaptosomes were centrifuged (20,000× g, 5 min, 4 °C) and used immediately for further analysis. A slightly different incubation method used in the glutamate release measurements is described in the corresponding section. Across all types of experiments, osmolarities of the CD solutions were adjusted and they were between 290 and 310 mOsm. At least three parallel measurements were carried out. The membrane integrity of the synaptosomes was measured by the CytoTox-ONE Homogeneous Membrane Integrity Assay (Promega, Madison, WI, USA) with minor modifications. The assay measures the release of the lactate dehydrogenase (LDH) enzyme from synaptosomes with damaged membranes. […] Both the supernatant and lysis samples were diluted 10-fold. The LDH activity was then assessed according to the manufacturer’s instructions and the fluorescence was measured by a Varioskan LUX multimode microplate reader (Thermo Fisher Scientific) at 530/590 nm.

| Molecule | Cholesterol extraction at 10 mM ([1]; 10 mM) | Cholesterol extraction at 30 mM ([1]; 30 mM) | pIC50 [1] | pIC50 [2] | Maximal effect (plateau) of LDH release [2] | pIC50 ([1]; 40 min) | pIC50 ([2]; Rattus norvegicus, 40 min) | Cholesterol depletion in the tested concentration range [1] | Concentration with influence on membrane integrity ([2]; LDH release, highest tested concentration) [µM] |
| --- | --- | --- | --- | --- | --- | --- | --- | --- | --- |
| COC[C@H]1O[C@@H]2O[C@H]3[C@H](O)[C@@H](OC)[C@@H](O[C@H]4[C@H](O)[C@@H](OC)[C@@H](O[C@H]5[C@H](O)[C@@H](OC)[C@@H](O[C@H]6[C@H](O)[C@@H](OC)[C@@H](O[C@H]7[C@H](O)[C@@H](OC)[C@@H](O[C@H]8[C@H](O)[C@@H](OC)[C@@H](O[C@H]1[C@H](O)[C@H]2OC)O[C@@H]8COC)O[C@@H]7COC)O[C@@H]6COC)O[C@@H]5COC)O[C@@H]4COC)O[C@@H]3COC [DIMEB, heptakis(2,6-di-O-methyl)-beta-cyclodextrin] | approximately 50% | Nearly total extraction | 2.13 | 1.74 | about 60% | – | – | – | – |
| CC(O)COC[C@H]1O[C@@H]2O[C@H]3[C@H](O)[C@@H](O)[C@@H](O[C@H]4[C@H](O)[C@@H](O)[C@@H](O[C@H]5[C@H](O)[C@@H](O)[C@@H](O[C@H]6[C@H](O)[C@@H](O)[C@@H](O[C@H]7[C@H](O)[C@@H](O)[C@@H](O[C@H]8[C@H](O)[C@@H](O)[C@@H](O[C@H]1[C@H](O)[C@H]2O)O[C@@H]8COCC(C)O)O[C@@H]7COCC(C)O)O[C@@H]6COCC(C)O)O[C@@H]5COCC(C)O)O[C@@H]4COCC(C)O)O[C@@H]3COCC(C)O (stereo partly drawn) [HPBCD, (2-hydroxypropyl)-beta-cyclodextrin] | – | – | – | – | 43% | 1.47 | 1.51 | – | – |
| (2-hydroxypropyl)-alpha-cyclodextrin [HPACD] | – | – | – | < 1.00 | – | – | – | without affecting the cholesterol content | – |
| randomly methylated alpha-cyclodextrin [RAMEA] | – | – | – | < 1.22 | – | – | – | without affecting the cholesterol content | 100000 |

— publication PMC9409351, “Differential Ganglioside and Cholesterol Depletion by Various Cyclodextrin Derivatives and Their Effect on Synaptosomal Glutamate Release” (International Journal of Molecular Sciences, 2022)
